What all share (assay): DTP human tumour cell line panel, 48 h
Test [1] has as its system SF-295 CNS.
The test system of test [2] is A498 renal.
Test [3] relates to UACC-62 melanoma.
The subject of test [4] is SR leukemia.
Test [5] deals with 786-0 renal.
In test [6] the test system is DU-145 prostate.
The subject of test [7] is ACHN renal.
Test [8] has as its system CCRF-CEM leukemia.
Test [9] deals with PC-3 prostate.
For test [10], the system named is NCI-H23 lung.
The test system of test [11] is OVCAR-4 ovarian.
Test [12] deals with LOX IMVI melanoma.
In test [13] the test system is HOP-62 NSCLC.
For test [14], the system named is RXF 393 renal.
The test system of test [15] is M14 melanoma.

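Five compound concentrations were applied to cells in 96-well plates for 48 hours; endpoints were derived by simple linear interpolation of the resulting dose-response curve. TGI is the concentration that stops growth completely.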 Where only a bound is given, the exact number is not on record here.

As to `CCOC(=O)/C=C/[C@@H](CC)O[Si](C(C)C)(C(C)C)C(C)C`, the TGI in test [1], in test [2], in [3], in test [4], in test [5] and in test [6] was over 100 µM each time. Besides, the TGI in test [7], in test [8], in [9], in [10], in test [11] and in test [12] was over 100 µM throughout. In test [13], this molecule showed a TGI of over 100 µM.

As for `COCCN1C(=O)C2c3[nH]c4ccccc4c3C3CCC(C(C)(C)C)CC3C2C1=O` (stereo unspecified), the TGI in test [1] was 34.5 µM; in [3], over 10 µM; in [4] it was 27 µM; in test [5] it was 31.5 µM; in test [6] it was 37.1 µM; in [14], 43.1 µM. The TGI in test [7] was over 10 µM; in [8], 87.2 µM; in test [9] it was 29.1 µM; in [15], 38.1 µM; in test [10], 57.3 µM; in [11], 36.8 µM. Besides, the TGI in test [13] was found to be 37.4 µM.

Regarding `COC1CC(OC2C(C)OC(OC3C(C)OC(OC4C(C)OC(O[C@H]5CC[C@@]6(C)C(=CC[C@]7(O)[C@@H]6C[C@@H](O)[C@@]6(C)[C@]7(O)CC[C@@]6(O)C(C)=O)C5)CC4OC)CC3OC)CC2OC)OC(C)C1O` (stereo partly specified), the TGI in [1], in test [3], in test [4], in [5], in [6] and in test [7] was over 12.5 µM each time. The TGI in test [8], in test [9], in test [15], in test [10], in test [11] and in test [12] was over 12.5 µM in each case. The same molecule returned a TGI in [13] of over 12.5 µM.

Regarding `N#Cc1nc(-c2cccc(-c3nc(C#N)c(N)o3)n2)oc1N`, the TGI in test [1], in [2], in test [3], in [4], in [5] and in [6] was over 100 µM in each case. Moreover, the TGI in [7] is over 100 µM; in test [8] it was 46.9 µM; in [9], over 100 µM; in [15], over 100 µM; in test [10], over 100 µM; in test [11], over 100 µM. In addition, the TGI in [12] and in test [13] was over 100 µM throughout.

On to `O=c1[nH]c2ccc([N+](=O)[O-])cc2nc1/C=C(\O)c1ccccc1`, for which the TGI is over 100 µM in test [1]; 47.4 µM in test [2]; over 100 µM in test [3]; over 100 µM in test [4]; 20.6 µM in test [5]; over 100 µM in test [6]. The TGI in test [14] was 49.8 µM; in test [7], over 100 µM; in test [8], over 100 µM; in [9] it was over 100 µM; in test [15] it was over 100 µM; in [10] it was 73.3 µM. Besides, the TGI in test [11] is 8.87 µM; in test [13] it was 22.1 µM.

For the molecule `O=C1C=C(N2CCN(CCOCCO)CC2)C(=O)c2c(O)ccc(O)c21`, the TGI in test [1] is 27.8 µM; in test [2] it was 27.8 µM; in test [3], 4.1 µM; in test [5] it was 21.7 µM; in [6], 10.5 µM; in test [14], 28.8 µM. Moreover, the TGI in test [7] was found to be 20.1 µM; in [8] it was 14.8 µM; in test [9] it was 10.7 µM; in [15], 3.1 µM; in test [10], 4.67 µM; in [11], 8.33 µM. Also, the TGI stood at 6.62 µM in [12] and 32.7 µM in [13].

For the molecule `C=C1CC2[C@H](C)C(=O)CCC2(C)C2=C1C1CCC(C(C)CCC(=C)C(C)C(=O)O)C1(C)CC2=O` (stereo partly specified), the TGI was over 100 µM in test [1]; over 100 µM in [2]; over 100 µM in test [3]; 40.1 µM in [5]; over 100 µM in [6]; 86.4 µM in test [14]. Besides, the TGI in test [7] is over 100 µM; in test [8], 30.3 µM; in test [9], over 100 µM; in [15] it was over 100 µM; in test [10], over 100 µM; in [11] it was over 100 µM. Also, the TGI was 33.8 µM in [12] and over 100 µM in test [13].

With `CC/C(=C\c1ccc(OC)cc1)c1ccc(OC)cc1`, the TGI in test [1], in test [2], in [3], in [5], in test [6] and in test [14] was over 100 µM each time. Moreover, the TGI in test [7], in [8], in test [9], in test [15], in test [10] and in test [11] was over 100 µM in each case. The TGI in test [12] and in [13] was over 100 µM each time.

In the case of `CN(C)CCCNC(=O)c1cn2c(ccc3sc4ccccc4c(=O)c32)n1`, the TGI in test [1] worked out at 17.4 µM; in test [2], 30.7 µM; in [3], 35.9 µM; in [4], 30 µM; in test [5] it was 8.08 µM; in test [6], 25 µM. For the same molecule, the TGI was 21.8 µM in [14]; 25.8 µM in test [7]; over 20.1 µM in test [8]; 9.43 µM in test [9]; 28.1 µM in test [15]; 28.4 µM in test [10]. Moreover, the values for the TGI in [11] and in test [13] were 28.1 µM and 28 µM, respectively.

On to `O=C(N/N=C\c1ccc([N+](=O)[O-])s1)c1ccncc1`, for which the TGI in [1] was found to be 44.5 µM; in [2], 53 µM; in test [3] it was 15.7 µM; in test [4], 12.2 µM; in test [5] it was 48.8 µM; in test [6], 79.3 µM. For the same molecule, the TGI in test [14] was 56.6 µM; in test [7], over 60.8 µM; in test [8], over 29.1 µM; in test [9], over 76.8 µM; in test [15], 25.2 µM; in test [10] it was 38.4 µM. Further, the results for the TGI in test [11] and in test [13] were 30.2 µM and 35.3 µM, respectively.

As for `C=CC[C@H](N=C(SC)SC)C(=O)N1C(=O)N(C)[C@@H](C)[C@H]1c1ccccc1`, the TGI in test [1], in test [2], in [3], in test [5], in test [6] and in test [14] was over 100 µM in each case. Further, the TGI in test [7], in [8], in test [9], in test [15], in test [10] and in test [11] was over 100 µM in each case. Also, the TGI in test [12] and in test [13] was over 100 µM in each case.

Regarding `CC(C)=NOC(=O)Nc1cccc2c1OCO2`, the TGI in test [1], in [2], in test [3], in test [5], in test [6] and in test [14] was over 100 µM throughout. The TGI in test [7], in test [9], in test [15], in test [10], in test [11] and in test [12] was over 100 µM throughout. The same molecule registered a TGI in [13] of over 100 µM.

Take `O=C1CC(c2ccccc2)S(=O)c2ccccc2N1` (stereo unspecified): the TGI in test [3], in test [4], in test [5], in [6], in test [7] and in test [8] was over 100 µM throughout. Besides, the TGI in test [9], in test [15], in test [10], in test [11], in [12] and in test [13] was over 100 µM throughout.

For `O=S(=O)(O)c1cc(S(=O)(=O)O)c2c(N=Nc3ccc(N=Nc4ccccc4)cc3)c(O)ccc2c1`, the TGI in test [1], in test [2], in test [3], in test [4], in test [5] and in [6] was over 100 µM in each case. The TGI in [14], in test [7], in [8], in [9], in test [15] and in test [10] was over 100 µM throughout. Moreover, the total growth inhibition concentration (TGI) in [11] and in [13] was over 100 µM in each case.

Consider `O=c1cc(N2CCCC2)[nH]c(=O)n1-c1ccc(Cl)cc1`, for which the TGI in test [1], in test [2], in [3], in test [5], in test [6] and in test [14] was over 100 µM each time. For the same molecule, the TGI in test [7], in [8], in [9], in test [15], in test [10] and in test [11] was over 100 µM each time. Further, the TGI in test [12] and in test [13] was over 100 µM each time.

For `O=S(=O)(O)c1ccc2c(N=Nc3ccc(Sc4ccc(N=Nc5c(O)ccc6cc(S(=O)(=O)O)ccc56)cc4)cc3)c(O)ccc2c1`, the TGI in [1], in test [3], in test [4], in [5], in [6] and in test [14] was over 100 µM in each case. The total growth inhibition concentration (TGI) in [7], in test [8], in test [9], in test [15], in test [10] and in test [11] was over 100 µM in each case. In addition, in test [13], the TGI is over 100 µM.

On to `Cc1ccc(S(=NS(=O)(=O)c2ccc(C)cc2)c2ccc(C)cc2)cc1`, for which the TGI in test [1], in test [4], in test [5], in test [6], in test [14] and in test [7] was over 100 µM throughout. Further, the TGI in test [8], in test [9], in test [15], in [10] and in [13] was over 100 µM each time.

For `O=c1[nH]nc(-c2ccccc2)n1-n1cnnc1`, the TGI in test [1], in test [2], in [3], in [4], in test [5] and in [14] was over 100 µM each time. Moreover, the TGI in test [7], in test [8], in test [9], in test [15], in test [10] and in [11] was over 100 µM throughout. The TGI in test [12] and in test [13] was over 100 µM each time.

For the molecule `Clc1cc2nnn(C3CCCO3)c2cc1Cl` (stereo unspecified), the concentration for total growth inhibition (TGI) in test [1], in test [2], in test [3], in test [4], in test [5] and in test [6] was over 100 µM in each case. Also, the TGI in test [14], in [8], in test [9], in test [15], in [10] and in test [13] was over 100 µM throughout.

On to `CCCCC[C@H]1CCCCCCCCCC(=O)OC2C(O[C@@H]3OC(C)[C@H](OC(=O)[C@@H](C)CC)C(O[C@@H]4OC(C)[C@H](O)C(O)[C@@H]4O)[C@@H]3OC(=O)[C@H](C)CC)[C@H](OC3C(O)[C@@H](O)C(C)O[C@H]3O1)OC(CO)[C@H]2O` (stereo partly specified), for which the TGI in test [1] is 32.7 µM; in test [3], 30.9 µM; in [4] it was 34.7 µM; in test [5], 31.7 µM; in test [6], 30 µM; in [8], 32.5 µM. For the same molecule, the TGI in test [9] worked out at 29.8 µM; in [15] it was 32.3 µM; in [10] it was 34 µM; in test [11] it was 36.3 µM; in test [12] it was 31.4 µM; in test [13], 32.8 µM.

A word on the TGI: it is the concentration giving total growth inhibition. Low values mean greater sensitivity of the cells, high ones lower sensitivity of the cells.

For the origin of these results see PubChem BioAssay (NCI).
